Assay results from patent US20170326125A1, “MULTISUBSTITUTED AROMATIC COMPOUNDS AS INHIBITORS OF THROMBIN” (VERSEON CORPORATION, priority 2016, published 2017).

What follows are compounds tested against T1, Human thrombin (Homo sapiens, UniProt P00734) (assay: Inhibition of the protease activity of thrombin (chromogenic substrate S-2238)). Details: inhibition of the protease activity of thrombin; class symbols a/b/c.
T1 construct: purchased Haematologic Technologies Inc
Format: biochemical
Procedure: Compounds described herein can be assayed, by a variety of methods known in the art and described herein, for inhibition of biological activity, e.g., protease activity, of a variety of proteins, e.g., thrombin.
The thrombin activity reported herein (e.g., Table A) was obtained as follows. Human thrombin was obtained from Haematologic Technologies Inc. The chromogenic
Thrombin was assayed in buffer containing 0.05 M Tris (pH 7.4), 0.015 M NaCl and 0.01% PEG-8000. The final concentration of enzyme used was 3 nM thrombin. […] All assays were performed in 96-well microtiter plates at room temperature (RT). […] Inhibitor IC50 values were determined by adding test compound as ten point, three-fold serial dilutions in buffer solution, as known in the art. The plate was read at 10 minutes after substrate addition. The IC50 was calculated by plotting the percent (%) inhibition against compound concentration and fitting the data to a constrained four parameter sigmoidal curve, as known in the art.

Question: For `O=C(c1cccc2c1OC(F)(F)O2)n1nc(-c2ccccc2)nc1NCc1ccc(F)cc1` [Cmpd 101, 1-[(2,2-difluoro-2H-1,3-benzodioxol-4-yl)carbonyl]-N-[(4-fluorophenyl)methyl]-3-phenyl-1H-1,2,4-triazol-5-amine], which IC50 is on record?
Answer: The IC50 was greater than 1000 nM.

Question: `O=C(c1cccc2c1OCCO2)n1nc(-c2ccccc2)nc1NCc1ccc(F)cc1` [Cmpd 102, 1-[(2,3-dihydro-1,4-benzodioxin-5-yl)carbonyl]-N-[(4-fluorophenyl)methyl]-3-phenyl-1H-1,2,4-triazol-5-amine] was tested. Which IC50 did it give?
Answer: The IC50 was less than 100 nM.

Question: For `COc1ccc(C(=O)n2nc(-c3ccccc3F)cc2NCc2ccccc2)c(N)c1` [Cmpd 103, 1-[(2-amino-4-methoxyphenyl)carbonyl]-N-benzyl-3-(2-fluorophenyl)-1H-pyrazol-5-amine], which IC50 is on record?
Answer: Its IC50 is greater than 1000 nM.

Question: With `COc1ccc(C(=O)n2nc(-c3ccccn3)nc2NCc2ccccc2)c(N)c1` [Cmpd 104, 1-[(2-amino-4-methoxyphenyl)carbonyl]-N-benzyl-3-(pyridin-2-yl)-1H-1,2,4-triazol-5-amine] as the compound, how does the IC50 read?
Answer: Its IC50 is less than 100 nM.

Question: How did the IC50 turn out when `COc1ccc(C(=O)n2nc(-c3ccccn3)cc2NCc2ccccc2)c(N)c1` [Cmpd 105, 1-[(2-amino-4-methoxyphenyl)carbonyl]-N-benzyl-3-(pyridin-2-yl)-1H-pyrazol-5-amine] was run?
Answer: Its IC50 is 100 to 1000 nM.

Question: `Cc1ccc(C(=O)n2nc(-c3ccccc3F)cc2NCc2ccccc2)c(N)c1` [Cmpd 106, 1-[(2-amino-4-methylphenyl)carbonyl]-N-benzyl-3-(2-fluorophenyl)-1H-pyrazol-5-amine] was tested. Which IC50 did it give?
Answer: The IC50 was greater than 1000 nM.

Question: With `Cc1ccc(C(=O)n2nc(-c3ccccn3)nc2NCc2ccccc2)c(N)c1` [Cmpd 107, 1-[(2-amino-4-methylphenyl)carbonyl]-N-benzyl-3-(pyridin-2-yl)-1H-1,2,4-triazol-5-amine] as the compound, how does the IC50 read?
Answer: The IC50 was less than 100 nM.

Question: `Cc1ccc(C(=O)n2nc(-c3ccccn3)cc2NCc2ccccc2)c(N)c1` [Cmpd 108, 1-[(2-amino-4-methylphenyl)carbonyl]-N-benzyl-3-(pyridin-2-yl)-1H-pyrazol-5-amine] was tested. Which IC50 did it give?
Answer: The IC50 was 100 to 1000 nM.

Question: With `Nc1ccccc1C(=O)n1nc(-c2ccccn2)nc1NCc1ccccc1` [Cmpd 109, 1-[(2-aminophenyl)carbonyl]-N-benzyl-3-(pyridin-2-yl)-1H-1,2,4-triazol-5-amine] as the compound, how does the IC50 read?
Answer: The IC50 was less than 100 nM.

Question: For `CSc1nc(-c2cccs2)nn1C(=O)c1ccccc1Cl` [Cmpd 110, 1-[(2-chlorophenyl)carbonyl]-5-(methylsulfanyl)-3-(thiophen-2-yl)-1H-1,2,4-triazole], which IC50 is on record?
Answer: The IC50 was less than 100 nM.

Question: With `O=C(c1ccccc1Cl)n1nc(-c2ccccn2)nc1NCc1ccc(F)cc1` [Cmpd 111, 1-[(2-chlorophenyl)carbonyl]-N-[(4-fluorophenyl)methyl]-3-(pyridin-2-yl)-1H-1,2,4-triazol-5-amine] as the compound, how does the IC50 read?
Answer: Its IC50 is less than 100 nM.

Question: `O=C(c1ccccc1Cl)n1nc(-c2ccncc2)nc1NCc1ccc(F)cc1` [Cmpd 112, 1-[(2-chlorophenyl)carbonyl]-N-[(4-fluorophenyl)methyl]-3-(pyridin-4-yl)-1H-1,2,4-triazol-5-amine] was tested. Which IC50 did it give?
Answer: The IC50 was less than 100 nM.

Question: `O=C(c1ccccc1Cl)n1nc(-c2cccs2)nc1NCc1ccc(F)cc1` [Cmpd 113, 1-[(2-chlorophenyl)carbonyl]-N-[(4-fluorophenyl)methyl]-3-(thiophen-2-yl)-1H-1,2,4-triazol-5-amine] was tested. Which IC50 did it give?
Answer: The IC50 was less than 100 nM.

Question: How did the IC50 turn out when `O=C(c1ccccc1Cl)n1nc(-c2ccccc2)cc1NCc1ccc(F)cc1` [Cmpd 114, 1-[(2-chlorophenyl)carbonyl]-N-[(4-fluorophenyl)methyl]-3-phenyl-1H-pyrazol-5-amine] was run?
Answer: Its IC50 is greater than 1000 nM.

Question: Which IC50 does the source give for `COc1ccccc1C(=O)n1nc(-c2ccccn2)cc1NCc1cccs1` [Cmpd 116, 1-[(2-methoxyphenyl)carbonyl]-3-(pyridin-2-yl)-N-(thiophen-2-ylmethyl)-1H-pyrazol-5-amine] here?
Answer: Its IC50 is 100 to 1000 nM.

Question: How did the IC50 turn out when `COc1ccccc1C(=O)n1nc(-c2ccccn2)nc1NCc1ccsc1` [Cmpd 117, 1-[(2-methoxyphenyl)carbonyl]-3-(pyridin-2-yl)-N-(thiophen-3-ylmethyl)-1H-1,2,4-triazol-5-amine] was run?
Answer: The IC50 was less than 100 nM.

Question: For `COc1ccccc1C(=O)n1nc(-c2ccccn2)cc1NCc1ccsc1` [Cmpd 118, 1-[(2-methoxyphenyl)carbonyl]-3-(pyridin-2-yl)-N-(thiophen-3-ylmethyl)-1H-pyrazol-5-amine], which IC50 is on record?
Answer: The IC50 was 100 to 1000 nM.

Question: With `COc1ccccc1C(=O)n1nc(-c2ccccn2)nc1NCc1cccc2ccccc12` [Cmpd 119, 1-[(2-methoxyphenyl)carbonyl]-N-(naphthalen-1-ylmethyl)-3-(pyridin-2-yl)-1H-1,2,4-triazol-5-amine] as the compound, how does the IC50 read?
Answer: Its IC50 is greater than 1000 nM.

Question: With `COc1ccccc1C(=O)n1nc(-c2ccccn2)nc1NCc1ccc2ccccc2c1` [Cmpd 120, 1-[(2-methoxyphenyl)carbonyl]-N-(naphthalen-2-ylmethyl)-3-(pyridin-2-yl)-1H-1,2,4-triazol-5-amine] as the compound, how does the IC50 read?
Answer: The IC50 was greater than 1000 nM.

Question: How did the IC50 turn out when `O=C(c1ccc(Cl)cc1)n1nc(-c2ccccn2)nc1NCc1ccc(F)cc1` [Cmpd 121, 1-[(4-chlorophenyl)carbonyl]-N-[(4-fluorophenyl)methyl]-3-(pyridin-2-yl)-1H-1,2,4-triazol-5-amine] was run?
Answer: The IC50 was less than 100 nM.

Question: For `O=C(c1ccc(Cl)cc1)n1nc(-c2ccncc2)nc1NCc1ccc(F)cc1` [Cmpd 122, 1-[(4-chlorophenyl)carbonyl]-N-[(4-fluorophenyl)methyl]-3-(pyridin-4-yl)-1H-1,2,4-triazol-5-amine], which IC50 is on record?
Answer: Its IC50 is 100 to 1000 nM.

Question: `COc1ccc(CNc2nc(-c3ccccn3)nn2C(=O)c2ccco2)cc1` [Cmpd 123, 1-[(furan-2-yl)carbonyl]-N-[(4-methoxyphenyl)methyl]-3-(pyridin-2-yl)-1H-1,2,4-triazol-5-amine] was tested. Which IC50 did it give?
Answer: The IC50 was 100 to 1000 nM.

Question: How did the IC50 turn out when `COc1ccc(CNc2nc(-c3ccncc3)nn2C(=O)c2ccco2)cc1` [Cmpd 124, 1-[(furan-2-yl)carbonyl]-N-[(4-methoxyphenyl)methyl]-3-(pyridin-4-yl)-1H-1,2,4-triazol-5-amine] was run?
Answer: The IC50 was 100 to 1000 nM.

Question: How did the IC50 turn out when `COc1ccc(CNc2nc(-c3ccccn3)nn2C(=O)c2ccoc2)cc1` [Cmpd 125, 1-[(furan-3-yl)carbonyl]-N-[(4-methoxyphenyl)methyl]-3-(pyridin-2-yl)-1H-1,2,4-triazol-5-amine] was run?
Answer: Its IC50 is 100 to 1000 nM.

Question: For `COc1ccc(CNc2nc(-c3cccnc3)nn2C(=O)c2ccoc2)cc1` [Cmpd 126, 1-[(furan-3-yl)carbonyl]-N-[(4-methoxyphenyl)methyl]-3-(pyridin-3-yl)-1H-1,2,4-triazol-5-amine], which IC50 is on record?
Answer: Its IC50 is 100 to 1000 nM.

Question: For `COc1ccc(CNc2nc(-c3ccncc3)nn2C(=O)c2ccoc2)cc1` [Cmpd 127, 1-[(furan-3-yl)carbonyl]-N-[(4-methoxyphenyl)methyl]-3-(pyridin-4-yl)-1H-1,2,4-triazol-5-amine], which IC50 is on record?
Answer: The IC50 was greater than 1000 nM.

Question: With `CN(C)C(=O)c1cc(-c2ccccn2)nn1CCc1ccc(F)cc1` [Cmpd 128, 1-[2-(4-fluorophenyl)ethyl]-N,N-dimethyl-3-(pyridin-2-yl)-1H-pyrazole-5-carboxamide] as the compound, how does the IC50 read?
Answer: Its IC50 is greater than 1000 nM.

Question: How did the IC50 turn out when `CN(C)C(=O)c1cc(-c2ccccn2)n(CCc2ccc(F)cc2)n1` [Cmpd 129, 1-[2-(4-fluorophenyl)ethyl]-N,N-dimethyl-5-(pyridin-2-yl)-1H-pyrazole-3-carboxamide] was run?
Answer: Its IC50 is greater than 1000 nM.

Question: Which IC50 does the source give for `CN(C(=O)c1cc(-c2ccccn2)nn1CCc1ccc(F)cc1)c1ccccc1` [Cmpd 130, 1-[2-(4-fluorophenyl)ethyl]-N-methyl-N-phenyl-3-(pyridin-2-yl)-1H-pyrazole-5-carboxamide] here?
Answer: The IC50 was greater than 1000 nM.
